Results reported in ChEMBL document CHEMBL5252610, “Synthesis, Characterization, and Bioactivity of the Lichen Pigments Pulvinamide, Rhizocarpic Acid, and Epanorin and Congeners” (J Nat Prod, 2023).
In brackets after ≈: the same amount, converted by molar mass.

Legend:
[1] = Cytotoxicity against human NFF cells assessed as reduction in cell viability incubated for 96 hrs by resazurin based assay; assay type: toxicity; conditions: read-out: MIC
[2] = Anticancer activity against mouse NS-1 cells assessed as reduction in cell viability incubated for 96 hrs by resazurin based assay; assay type: functional
Saccharomyces cerevisiae = test: Antifungal activity against Saccharomyces cerevisiae ATCC 9763 assessed as bacterial growth inhibition incubated for 48 hrs by bromocresol green based broth dilution assay; assay type: functional
Staphylococcus aureus = test: Antibacterial activity against Staphylococcus aureus ATCC 25923 assessed as bacterial growth inhibition incubated for 48 hrs by resazurin microtiter assay; assay type: functional
Candida albicans = test: Antifungal activity against Candida albicans ATCC 10231 assessed as bacterial growth inhibition incubated for 48 hrs by bromocresol green based broth dilution assay; assay type: functional
Bacillus subtilis = test: Antibacterial activity against Bacillus subtilis ATCC 6633 assessed as bacterial growth inhibition incubated for 48 hrs by resazurin microtiter assay; assay type: functional
Giardia intestinalis = test: Antiparasitic activity against Giardia intestinalis 713 assessed as bacterial growth inhibition incubated for 96 hrs by microtiter assay; assay type: functional; conditions: Giardia duodenalis
Spodoptera littoralis [3] = test: Insecticidal activity against Spodoptera littoralis assessed as reduction in number of pupae in adulthood (Rvb=90%); assay type: functional; design: scale not given: the % may be the effect or the level left
Spodoptera littoralis [4] = test: Insecticidal activity against Spodoptera littoralis neonate larvae assessed as reduction in weight gain of larvae; assay type: functional

SMILES: CSC[S+]([O-])C[C@H](CO)NC(=O)/C=C/c1c(C)[nH]c(=O)[nH]c1=O (stereo partly drawn)
- MCC at 96 h [1]: 0.6 µg/mL
- MIC [2]: 0.6 µg/mL (≈ 1.66 µM)

SMILES: COC(=O)[C@H](CC(C)C)NC(=O)/C(=C1/OC(=O)C(c2ccccc2)=C1O)c1ccccc1
- MIC (Saccharomyces cerevisiae): > 200 µg/mL
- MIC (Staphylococcus aureus): > 100 µg/mL
- MIC (Candida albicans): > 200 µg/mL
- MIC (Bacillus subtilis): > 100 µg/mL
- MCC at 96 h [1]: > 100 µg/mL
- MIC (Giardia intestinalis): 50 µg/mL (≈ 115 µM)
- MIC [2]: 25 µg/mL (≈ 57.4 µM)

SMILES: O=C1O/C(=C(/C(=O)N[C@@H](Cc2ccccc2)C(=O)O)c2ccccc2)C(O)=C1c1ccccc1
- MIC (Saccharomyces cerevisiae): > 200 µg/mL
- MIC (Staphylococcus aureus): > 100 µg/mL
- MIC (Candida albicans): > 200 µg/mL
- MIC (Bacillus subtilis): 100 µg/mL (≈ 220 µM)
- MCC at 96 h [1]: > 100 µg/mL
- MIC (Giardia intestinalis): > 100 µg/mL
- MIC [2]: > 100 µg/mL

SMILES: COC(=O)[C@H](Cc1ccccc1)NC(=O)/C(=C1/OC(=O)C(c2ccccc2)=C1O)c1ccccc1
- MIC (Saccharomyces cerevisiae): > 200 µg/mL
- MIC (Staphylococcus aureus): > 100 µg/mL
- MIC (Candida albicans): > 200 µg/mL
- MIC (Bacillus subtilis): 50 µg/mL (≈ 106 µM)
- MCC at 96 h [1]: > 100 µg/mL
- MIC (Giardia intestinalis): 100 µg/mL (≈ 213 µM)
- Activity (Spodoptera littoralis [3]): 25%
- MIC [2]: 3.1 µg/mL (≈ 6.6 µM)
- ED50 (Spodoptera littoralis [4]): 71 µmol/g

SMILES: NC(=O)/C(=C1/OC(=O)C(c2ccccc2)=C1O)c1ccccc1
- MIC (Saccharomyces cerevisiae): 100 µg/mL (≈ 325 µM)
- MIC (Staphylococcus aureus): > 100 µg/mL
- MIC (Candida albicans): 200 µg/mL (≈ 651 µM)
- MIC (Bacillus subtilis): 50 µg/mL (≈ 163 µM)

SMILES: COC(=O)[C@@H](Cc1ccccc1)NC(=O)/C(=C1/OC(=O)C(c2ccccc2)=C1O)c1ccccc1
- MIC (Saccharomyces cerevisiae): > 200 µg/mL
- MIC (Staphylococcus aureus): 50 µg/mL (≈ 106 µM)
- MIC (Candida albicans): > 200 µg/mL
- MIC (Bacillus subtilis): 50 µg/mL (≈ 106 µM)
- MCC at 96 h [1]: > 100 µg/mL
- MIC (Giardia intestinalis): 25 µg/mL (≈ 53.2 µM)
- MIC [2]: 50 µg/mL (≈ 106 µM)

SMILES: CN(CC[C@H](N)CC(=O)N[C@H]1C=C[C@H](n2ccc(N)nc2=O)O[C@@H]1C(=O)O)C(=N)N.Cl
- MIC (Saccharomyces cerevisiae): 3.1 µg/mL
- MIC (Candida albicans): > 200 µg/mL

SMILES: CC(C)C[C@H](NC(=O)/C(=C1/OC(=O)C(c2ccccc2)=C1O)c1ccccc1)C(=O)O
- MIC (Saccharomyces cerevisiae): > 200 µg/mL
- MIC (Staphylococcus aureus): > 100 µg/mL
- MIC (Candida albicans): > 200 µg/mL
- MIC (Bacillus subtilis): > 100 µg/mL
- MCC at 96 h [1]: > 100 µg/mL
- MIC (Giardia intestinalis): > 100 µg/mL
- MIC [2]: > 100 µg/mL

SMILES: COC(=O)[C@@H](CC(C)C)NC(=O)/C(=C1/OC(=O)C(c2ccccc2)=C1O)c1ccccc1
- MIC (Saccharomyces cerevisiae): > 200 µg/mL
- MIC (Staphylococcus aureus): 100 µg/mL (≈ 230 µM)
- MIC (Candida albicans): > 200 µg/mL
- MIC (Bacillus subtilis): 50 µg/mL (≈ 115 µM)
- MCC at 96 h [1]: > 100 µg/mL
- MIC (Giardia intestinalis): 25 µg/mL (≈ 57.4 µM)
- MIC [2]: 50 µg/mL (≈ 115 µM)

SMILES: Cc1ncc([N+](=O)[O-])n1CCO [METRONIDAZOLE]
- MIC (Giardia intestinalis): 0.3 µg/mL (≈ 1.75 µM)

SMILES: O=C1O/C(=C(/C(=O)O)c2ccccc2)C(O)=C1c1ccccc1 [PULVIC ACID]
- MIC (Saccharomyces cerevisiae): > 100 µg/mL
- MIC (Staphylococcus aureus): > 100 µg/mL
- MIC (Candida albicans): > 100 µg/mL
- MIC (Bacillus subtilis): > 100 µg/mL

SMILES: O=C1OC2=C(c3ccccc3)C(=O)OC2=C1c1ccccc1 [PULVINIC DILACTONE]
- MIC (Saccharomyces cerevisiae): > 100 µg/mL
- MIC (Staphylococcus aureus): > 100 µg/mL
- MIC (Candida albicans): > 100 µg/mL
- MIC (Bacillus subtilis): > 100 µg/mL

SMILES: CN(C)[C@@H]1C(O)=C(C(N)=O)C(=O)[C@@]2(O)C(O)=C3C(=O)c4c(O)cccc4[C@@](C)(O)[C@H]3C[C@@H]12 [TETRACYCLINE]
- MIC (Staphylococcus aureus): 12.5 µg/mL (≈ 28.1 µM)
- MIC (Bacillus subtilis): 6.3 µg/mL (≈ 14.2 µM)
